Series [1] concerns fibrotic liver (CCl4 mice). As to the kind of experiment: MR liver imaging in CCl4 mouse model of liver fibrosis (18 weeks). In kind it is in vivo. To be noted: fibrotic (CCl4-treated) mouse, pre vs 30-minute post administration. Here is the method:
Liver Fibrosis: Strain A/J male mice (Jackson Laboratories, Bar Harbor, Me.) were administered 0.1 mL of a 40% solution of CCl4 (Sigma, St. Louis, Mo.) in olive oil by oral gavage three times a week for 18 weeks to induce fibrosis. Controls received only pure olive oil. Animals were imaged one week after the last injection to avoid acute effects of CCl4.
Mice were imaged with T1-weighted imaging before and after bolus (tail vein) injection of probe (Compound 1 or Compound 2) using a 4.7T scanner. Image visualization and quantification was performed using the DICOM viewer Osirix. A region of interest (ROI) was placed over the entire liver section while avoiding major blood vessels. Axial slices that cover the entire liver is analyzed (>10 slices/mouse). The signal intensity of the muscle within each slice was also quantified by a separate ROI. To estimate noise, an ROI of the air outside the animal was measured and the standard deviation of this measurement was taken. The same analysis was performed on the pre and 30-min post injection images (3D FLASH sequence).
Contrast to noise ratio (CNR) is calculated using equation (1). SI=signal intensity, SD=standard deviation, and delta CNR is the absolute difference between the pre- and post- images (2).
(§1) CNR=(SIliver−SImuscle)/SDair (1)
Delta CNR={CNRpost−CNRpre} (2)

Series [2] is described as follows: T1 relaxivity of probe in solution (water) without protein. In kind it is physicochemical. To be noted: no protein, 310K, pH 7, 0.47 T. Here is the method:
Aliquots of BSA-ALD (3 mg, 150 μL) or BSA (3mg, 163 μL) were treated for 24 h at 37° C. with either Compound 1 or Compound 2 at a range of concentrations (0.1-1.0 mM, concentrations equivalent to [Gd]:[aldehyde] ratio of 1:1, 2:1, 3:1, 4:1 and 5:1) with a total volume of 300 μl maintained for all samples. After 24 h longitudinal (T1) relaxation measurements were recorded using a Bruker mq20 Minispec at 0.47 T and 37° C. Longitudinal (T1) relaxation was acquired via an inversion recovery experiment on 10 inversions of duration ranging between 0.05×T1 and 10×T1. Relaxivity (r1) was determined from the slope of a plot of 1/T1 vs [Gd] for 5 concentrations of Gd(III).
Solutions of Compound 1 and Compound 2 (concentration range: 0.1 mM-1.0 mM, in water) were run in parallel without protein as standard controls.

The test system of series [3] is liver fibrosis (CCl4-treated mice). Briefly: MR liver imaging in mice after 6 or 12 weeks of CCl4 treatment, or 6 weeks plus recovery. In kind it is in vivo. To be noted: for ΔCNR (liver:muscle contrast-to-noise ratio): 15-minute post injection; for liver signal enhancement post vs pre injection (in words): 15 min post injection. Here is the method: Strain A/J male mice (Jackson Laboratories, Bar Harbor, Me.) were administered 0.1 ml of a 40% solution of CCl4 (Sigma, St. Louis, Mo.) in olive oil by oral gavage, three times a week for either 6 (n=14) or 12 weeks (n=10), to induce fibrosis at different stages. Controls received only pure olive oil (n=12).
Animals were imaged prior to and immediately following injection of the imaging probe. After imaging, the animals were sacrificed and the liver was removed for histopathological analyses.
Animals were anesthetized with isoflurane (1-2%) and placed in a specially designed cradle with body temperature maintained at 37° C. The tail vein was cannulated for intravenous (iv) delivery of the contrast agent while the animal was positioned in the scanner. Imaging was performed at 4.7T using a small bore animal scanner (Bruker Biospec) with a custom-built volume coil. The mouse was imaged prior to and following a bolus iv injection of Compound 1 (100 μmol/kg). The image sequence was a three dimensional fast low angle shot (3D FLASH) acquisition with repetition time (TR=15.3 ms), echo time (TE=1.54 ms), flip angle=15°, field of view 48×24×24 mm and matrix size 192×96×96 for a resolution of 250 μm isotropic and […] used 4 averages.
Image analysis was performed using the Osirix software. A region of interest (ROI) was manually traced encompassing the liver parenchyma while avoiding major blood vessels. A second ROI was placed on the dorsal muscle visible in the same image slice to quantify the signal intensity in the muscle for comparison. Seven ROIs were placed in the field of view without any tissue (air) to measure the noise in the image. More than 20 axial slices per mouse across the entire liver was analyzed in this fashion. The same analysis was performed on the pre-injection and 15-minute post injection images.
To quantify signal enhancement in the liver, contrast to noise ratio (CNR) was calculated using equation 1 below. SI=signal intensity, SD=standard deviation. An average of all image slices was calculated for the pre-injection images (CNRpre) and for the post-injection images (CNRpos). The liver enhancement for each mouse was expressed as ΔCNR, the difference between the pre-injection CNR and post-injection CNR (equation 2).
as §1
Differences among groups were tested with repeated measures ANOVA, followed by Student-Newman-Keuls post hoc test with P<0.05 considered as significant.
Strain A/J male mice (Jackson Laboratories, Bar Harbor, Me.) were administered 0.1 ml of a 40% solution of CCl4 (Sigma, St. Louis, Mo.) in olive oil by oral gavage, three times a week for 6 weeks and then allowed to recover for an additional 6 weeks (n=7). Animals were imaged prior to and immediately following injection of the imaging probe using the same protocol as in the previous example.
We compared Compound 2 to Compound 1 in terms of their ability to image fibrosis. Compound 2 has a very similar structure to Compound 1 but the hydrazide functional group has been dimethylated. The resulting dimethylhydrazide in Compound 2 is incapable of undergoing irreversible reaction with aldehyde moieties. Using the same animal model and imaging paradigm as described in the previous Example, mice that had been treated with CCl4 for 12 weeks or mice that received vehicle for 12 weeks were imaged.

Series [4] deals with T1, modified bovine serum albumin (BSA-ALD) (Bos taurus, UniProt P02769).
T1 construct: A solution of glutaraldehyde (100 μL, 25% wt solution in water) was added to a solution of bovine serum albumin
As to the kind of experiment: In vitro binding assay: Gd bound to protein after ultrafiltration (ICP). To be noted: protein fraction after separation from free solution.

Series [5] addresses T2, unmodified bovine serum albumin (BSA) (Bos taurus, UniProt P02769).
T2 construct: A BSA protein standard without the addition of glutaraldehyde was run in parallel as a control
The description is as above. To be noted: protein fraction after separation from free solution.

The target of series [6] is T1, modified bovine serum albumin (BSA-ALD). Briefly: T1 relaxivity/relaxation after incubation with aldehyde-modified BSA. The series is classed as binding. Here is the method:
(§2) A solution of glutaraldehyde (100 μL, 25% wt solution in water) was added to a solution of bovine serum albumin (100 mg) dissolved in phosphate buffered saline (2 mL, pH 7.4, 0.25 mM) and left to stir at room temperature for 5 min. To this solution was added sodium cyanoborohydride (25 mg) and the solution stirred overnight at 4° C. A BSA protein standard without the addition of glutaraldehyde was run in parallel as a control. Both protein mixtures were purified on PD-10 Sephadex G25 desalting columns (GE Healthcare), eluted with water, to remove excess glutaraldehyde. Protein concentrations were assessed using the ‘BCA Protein Assay Kit’ (Thermo Scientific). […] The aldehyde concentration of each protein was estimated using a standard DNPH literature protocol.
(§3) Aliquots of BSA-ALD (3 mg, 150 μL) or BSA (3mg, 163 μL) were treated for 24 h at 37° C. with either Compound 1 or Compound 2 at a range of concentrations (0.1-1.0 mM, concentrations equivalent to [Gd]:[aldehyde] ratio of 1:1, 2:1, 3:1, 4:1 and 5:1) with a total volume of 300 μl maintained for all samples. After 24 h longitudinal (T1) relaxation measurements were recorded using a Bruker mq20 Minispec at 0.47 T and 37° C. […] Relaxivity (r1) was determined from the slope of a plot of 1/T1 vs [Gd] for 5 concentrations of Gd(III). […]

The target in series [7] is T2, unmodified bovine serum albumin (BSA). Briefly: T1 relaxivity/relaxation after incubation with unmodified BSA. In kind it is binding. Here is the method:
as §2, §3

SMILES strings stand for the structures. Entries after “also recorded” stand apart in the source; their conditions may differ.

T2 sequence (P02769 25-607): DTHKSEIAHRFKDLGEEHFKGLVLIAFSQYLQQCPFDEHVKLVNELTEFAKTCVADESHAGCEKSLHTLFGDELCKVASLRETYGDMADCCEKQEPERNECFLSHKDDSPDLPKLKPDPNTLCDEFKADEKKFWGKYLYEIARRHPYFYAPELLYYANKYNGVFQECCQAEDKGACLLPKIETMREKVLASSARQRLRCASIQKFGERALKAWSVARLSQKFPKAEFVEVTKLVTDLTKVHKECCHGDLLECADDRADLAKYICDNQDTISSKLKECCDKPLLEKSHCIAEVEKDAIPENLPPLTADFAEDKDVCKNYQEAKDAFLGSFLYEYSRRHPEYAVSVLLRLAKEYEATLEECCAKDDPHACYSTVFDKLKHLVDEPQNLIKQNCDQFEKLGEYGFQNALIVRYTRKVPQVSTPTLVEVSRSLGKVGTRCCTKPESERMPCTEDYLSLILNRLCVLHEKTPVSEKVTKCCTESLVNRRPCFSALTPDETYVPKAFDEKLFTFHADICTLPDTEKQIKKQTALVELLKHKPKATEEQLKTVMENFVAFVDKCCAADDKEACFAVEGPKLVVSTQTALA
T1 sequence (P02769 25-607): as above

For `CN(C)NC(=O)CC[C@H](C(=O)O)N1CCN(CC(=O)[O-])CCN(CC(=O)[O-])CCN(CC(=O)[O-])CC1.[Gd+3]` [Compound 2, (R)-2,2′,2″-(10-(1-carboxy-4-(2,2-dimethylhydrazinyl)-4-oxobutyl)-1,4,7,10-tetraazacyclododecane-1,4,7-triyl)triacetic acid Gadolinium complex], the “MR signal enhancement of liver” value in series [1] is “very little enhancement; also recorded: little MR signal enhancement”. Further, the “T1 relaxivity, standard solution measurement” value in series [2] worked out at 4.09 mM⁻¹ s⁻¹. For the same compound, the “increase in ΔCNR, 12-week CCl4-treated vs vehicle” value in series [3] (12-week CCl4-treated animals vs vehicle) is recorded as “no difference”. The “ΔCNR (liver:muscle contrast-to-noise ratio)” value in series [3] (12-week CCl4-treated mice) is recorded as 0.5±0.5; in series [3] (vehicle (olive oil) treated control mice, probe injected iv) it was 0.6±0.9. The “liver signal enhancement post vs pre injection (in words)” value in series [3] (12-week CCl4-treated mice) and in series [3] (vehicle treated mice) was “slight enhancement” in each case. Also, the “Gd bound to protein” value in series [4] and in series [5] was “No statistically significant amount” each time. Also, in series [6] (incubated 24 h at 37° C. with BSA-ALD, 310K, pH 7, 0.47 T), the “T1 relaxivity with BSA-ALD” value came out at 4.22 mM⁻¹ s⁻¹. For the same compound, the “change in T1 relaxation time of protein fraction compared to solution controls” value in series [6] (protein fraction after separation, BSA-ALD (FIG. 5A)) is listed as “did not differ significantly”. Moreover, the “change in T1 relaxation time compared to standards” value in series [7] (fractions after separation, BSA (FIG. 5A)) was “did not differ significantly”. In addition, in series [7] (incubated 24 h at 37° C. with BSA, 310K, pH 7, 0.47 T), the “T1 relaxivity with BSA” value amounted to 4.20 mM⁻¹ s⁻¹.

The values are drawn from patent US20170050989A1, “Molecular Imaging Probes” (THE GENERAL HOSPITAL CORPORATION, priority 2013, published 2017).
